Data: US20230117034A1, “PYRAZOLOTRIAZINES” (Bayer Aktiengesellschaft, priority 2019, published 2023)

Tests used:
CDK12/CycK = CDK12/CycK (Homo sapiens, UniProt Q9NYV4); test: CDK12/CycK high ATP kinase assay (TR-FRET, 2 mM ATP); format: biochemical; conditions: 2 mM ATP (high ATP); median; read-out: CDK12/CyclinK, 2 mM ATP (high ATP), IC50-[mol/l] (median)
Summary of the method: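 Read-out is TR-FRET (Eu-anti-rabbit IgG, anti-phospho-c-Myc Ser62 antibody, streptavidin-XL665) after EDTA stop. Reaction ran 60 min at 22 °C using 1 µM biotin-peptide and high ATP (2 mM) with roughly 0.75 nM recombinant CDK12/CycK, after 15 min compound pre-binding; normalised emission ratios yield IC50.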

CDK2/CycE = target: T1, CDK2/CycE (Homo sapiens, UniProt P24941); test: CDK2/CycE kinase assay (TR-FRET, 2 mM ATP); format: biochemical; conditions: 2 mM ATP (high ATP); median; read-out: CDK2/CyclinE, 2 mM ATP (high ATP), IC50 (median)
T1 construct: purchased ProQinase GmbH (Freiburg, Germany); host or cells: insect cells (Sf9)
Summary of the method: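 Biotin-peptide phosphorylation (0.75 µM substrate, 2 mM ATP final, 25 min, 22 °C) by Sf9-expressed GST-CDK2/GST-CycE, after a 15-min compound pre-binding step. Inhibition scaled between enzyme-free (100%) and uninhibited (0%) wells.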

Chain of CDK12/CycK (Q9NYV4 with tags, fused parts or gaps): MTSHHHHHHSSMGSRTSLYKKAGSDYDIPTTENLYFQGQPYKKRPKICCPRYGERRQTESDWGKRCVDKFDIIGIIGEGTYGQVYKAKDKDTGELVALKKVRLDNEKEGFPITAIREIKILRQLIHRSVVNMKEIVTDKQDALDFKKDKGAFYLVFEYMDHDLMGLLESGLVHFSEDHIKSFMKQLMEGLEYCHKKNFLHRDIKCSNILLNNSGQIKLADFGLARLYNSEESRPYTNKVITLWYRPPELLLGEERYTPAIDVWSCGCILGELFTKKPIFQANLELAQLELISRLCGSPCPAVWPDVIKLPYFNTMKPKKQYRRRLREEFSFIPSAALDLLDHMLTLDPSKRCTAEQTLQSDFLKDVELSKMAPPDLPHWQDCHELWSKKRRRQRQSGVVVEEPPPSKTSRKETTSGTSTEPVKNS
Chain of CDK12/CycK (O75909 1-300 partner limits assumed): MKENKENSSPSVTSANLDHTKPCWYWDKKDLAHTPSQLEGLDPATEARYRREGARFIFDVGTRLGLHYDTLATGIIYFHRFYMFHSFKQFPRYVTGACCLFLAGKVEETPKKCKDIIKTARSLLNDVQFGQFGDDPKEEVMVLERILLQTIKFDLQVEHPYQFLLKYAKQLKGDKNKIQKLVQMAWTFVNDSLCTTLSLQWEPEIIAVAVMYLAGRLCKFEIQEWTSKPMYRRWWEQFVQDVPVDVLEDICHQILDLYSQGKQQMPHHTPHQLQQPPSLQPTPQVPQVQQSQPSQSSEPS

Brc1cnn2c(NCc3nc4ccccc4[nH]3)nc(N3CCC4(CCN4)CC3)nc12 [Example 291, N-[(1H-benzimidazol-2-yl)methyl]-8-bromo-2-(1,7-diazaspiro[3.5]nonan-7-yl)pyrazolo[1,5-a][1,3,5]triazin-4-amine]
IC50 (CDK12/CycK): 10.7 µM | IC50 (CDK2/CycE): 4.07 µM

CN(CC(C)(C)O)c1nc(NCc2nc3cc(F)c(Cl)cc3[nH]2)n2ncc(C3CC3)c2n1 [Example 317, 1-[(4-{[(6-chloro-5-fluoro-1H-benzimidazol-2-yl)methyl]amino}-8-cyclopropylpyrazolo[1,5-a][1,3,5]triazin-2-yl)(methyl)amino]-2-methylpropan-2-ol]
IC50 (CDK12/CycK): 0.979 µM | IC50 (CDK2/CycE): 10.7 µM

CN1CCN(c2nc(NCc3nc4cc(F)c(F)cc4[nH]3)n3ncc(C4CC4)c3n2)CC1 [Example 311, 8-cyclopropyl-N-[(5,6-difluoro-1H-benzimidazol-2-yl)methyl]-2-(4-methylpiperazin-1-yl)pyrazolo[1,5-a][1,3,5]triazin-4-amine]
IC50 (CDK12/CycK): > 20 µM | IC50 (CDK2/CycE): > 20 µM

CC1(N)CCN(c2nc(NCc3nc4ccccc4[nH]3)n3ncc(Br)c3n2)CC1 [Example 290, 2-(4-amino-4-methylpiperidin-1-yl)-N-[(1H-benzimidazol-2-yl)methyl]-8-bromopyrazolo[1,5-a][1,3,5]triazin-4-amine]
IC50 (CDK12/CycK): > 19.8 µM | IC50 (CDK2/CycE): 7.21 µM

C[C@@H]1CN(c2nc(NCc3nc4ccccc4[nH]3)n3ncc(C4CC4)c3n2)C[C@H](C)N1 [Example 248, N-[(1H-benzimidazol-2-yl)methyl]-8-cyclopropyl-2-[(3R,5S)-3,5-dimethylpiperazin-1-yl]pyrazolo[1,5-a][1,3,5]triazin-4-amine]
IC50 (CDK12/CycK): 9.2 µM | IC50 (CDK2/CycE): > 20 µM
